The subject of the test is Ai14 mice. The test can be described thus: Normalized delivery and fold enrichment from DNA barcode sequencing of tdTomato+ cells. Particulars: by LNP component; pool of 65 LNPs. It is filed as in vivo. On the procedure:
Following characterization of the pool of 65 Pi-LNPs, the LNPs were injected into Ai14 mice at a total nucleic dose of 1.5 mg/kg (averaging a 0.023 mg total nucleic acid/kg/particle, for all 65 Pi-LNPs) (FIG. 2A). The Ai14 mice have a Lox-Stop-Lox-tdTomato construct downstream of a CAG promoter. Thus, if Cre mRNA is delivered into a target cell and is subsequently functionally translated into Cre protein, the cells become tdTomato+ (FIG. 2A). By isolating tdTomato+ cells using fluorescence-activated cell sorting (FACS, FIG. 4, FIG. 5) and sequencing the cells using next-generation sequencing, it was possible to isolate the DNA barcodes, associated with specific LNPs, within cells that were functionally transfected with Cre mRNA 26, 36-38 Three days after injection, liver, spleen, lung, and kidney were isolated and quantified the percentage of tdTomato+ cells from 14 different cell populations (FIG. 2B). […] The percentage of tdTomato+ quantified in liver endothelial cells and dendritic cells was <5%, and no delivery in lung and kidney was observed. […] From the barcode raw counts obtained through sequencing, the normalized delivery of each individual barcode was calculated. Briefly, the normalized delivery of a given barcode was calculated as the number of counts for that barcode divided by the counts for all N barcodes (Tables 1-3, below). […]

From patent US20250127727A1, “IONIZABLE LIPIDS WITH BIOACTIVE MOTIFS” (GEORGIA TECH RESEARCH CORPORATION, priority 2021, published 2025) come the findings set out here.

Take `CC(C)CCC[C@@H](C)[C@H]1CC[C@H]2[C@@H]3CC=C4C[C@@H](O)CC[C@]4(C)[C@H]3CC[C@]12C` [cholesterol]: the “fold enrichment (odds of being in top or bottom 10% of LNPs)” value was “outperformed 20α-OH cholesterol”.
